Measurements: patent US20240252488A1 (KOREA RESEARCH INSTITUTE OF CHEMICAL TECHNOLOGY, priority 2020, published 2024)

Tests used:
FADD−/− Jurkat cells = assay: Necroptosis inhibition assay, TNF-α-induced necroptosis (CellTiter-Glo 2.0); assay type: cell-based, human; settings: TNF-α 15 ng/mL, FADD−/− Jurkat cells; for Necroptosis inhibition assay (Rescue %) 1 μM: compound 1 μM; for Necroptosis inhibition assay (Rescue %) 10 μM: compound 10 μM
Outline: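 Compound is added to cells at final concentrations of 0.1, 1 and 10 μM and left 30 minutes at room temperature. Necroptosis is induced with 15 ng/mL TNF-α, culture continues 20 to 24 hours at 37° C, and ATP-based luminescence reports viability.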

MLKL [1] = target: T1, MLKL (Homo sapiens, UniProt Q8NB16); assay: Measurement of binding affinity with MLKL receptor (competitive binding assay, Kd); design: made in house; host or cells: HEK 293 cell line (T7 phage in E. coli BL21-derived host is also described)
T1 sequence (Q8NB16 1-471): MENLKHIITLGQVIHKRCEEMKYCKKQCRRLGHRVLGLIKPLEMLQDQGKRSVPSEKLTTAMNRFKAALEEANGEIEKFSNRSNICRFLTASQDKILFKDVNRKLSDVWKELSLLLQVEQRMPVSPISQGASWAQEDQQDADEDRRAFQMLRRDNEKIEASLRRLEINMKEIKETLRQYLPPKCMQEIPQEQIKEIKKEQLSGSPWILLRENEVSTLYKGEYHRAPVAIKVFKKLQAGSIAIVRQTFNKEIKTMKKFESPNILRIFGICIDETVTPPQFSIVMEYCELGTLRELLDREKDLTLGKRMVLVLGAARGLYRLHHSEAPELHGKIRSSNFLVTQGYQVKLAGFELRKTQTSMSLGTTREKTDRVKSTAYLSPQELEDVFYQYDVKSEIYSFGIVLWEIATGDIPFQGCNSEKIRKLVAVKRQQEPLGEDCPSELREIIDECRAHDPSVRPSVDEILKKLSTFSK
Outline: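 Kd comes from a bead-based competition format: compound-dependent loss of DNA-tagged, HEK 293-expressed MLKL capture, measured as eluate kinase by qPCR. Final DMSO is 0.9%.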

MLKL [2] = target: T1, MLKL; assay: MLKL degradation assay in HepG2 cell line (western blot); assay type: cell-based; design: endogenous in cells; host or cells: HepG2 or HaCaT; settings: cell line not given; for Degradation assay (Degradation %) 1 μM: compound 1 μM; for Degradation assay (Degradation %) 10 μM: compound 10 μM
Outline: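 Chemiluminescent western blot signal reports remaining MLKL protein in HepG2 cells after 20-24 h treatment with compound at a final 1 or 10 μM. Equal protein (10-15 μg, BCA) is loaded per lane.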

Row | SMILES | Necroptosis inhibition assay (Rescue %) 1 μM (FADD−/− Jurkat cells) | Necroptosis inhibition assay (Rescue %) 10 μM (FADD−/− Jurkat cells) | Kd (MLKL [1]) | Degradation assay (Degradation %) 1 μM (MLKL [2]) | Degradation assay (Degradation %) 10 μM (MLKL [2])
1 | COc1ccc(C(=O)N2CCC(C(=O)N3CCC(CN4CCC(n5cc(-c6cnc(N)c(C(=O)O[C@@H](C(=O)Nc7ccc(F)cc7)c7ccccc7)n6)cn5)CC4)CC3)CC2)cc1N1CCC(=O)NC1=O [TDH-515, (R)-2-((4-fluorophenyl)amino)-2-oxo-1-phenylethyl 3-amino-6-(1-(1-((1-(1-(3-(2,4-dioxotetrahydropyrimidin-1(2H)-yl)-4-methoxybenzoyl)piperidine-4-carbonyl)piperidin-4-yl)methyl)piperidin-4-yl)-1H-pyrazol-4-yl)pyrazine-2-carboxylate] | 68.04% | 15.68% | 1.4 nM | 95.21% | 89.06%
2 | Nc1ncc(-c2cnn(C3CCN(CC4CCN(C(=O)Cc5cccc(NC6=CC(=O)N(C7CCC(=O)NC7=O)C6=O)c5)CC4)CC3)c2)nc1C(=O)O[C@@H](C(=O)Nc1ccc(F)cc1)c1ccccc1 (stereo partly drawn) [TDH-516, (R)-2-((4-fluorophenyl)amino)-2-oxo-1-phenylethyl 3-amino-6-(1-(1-((1-(2-(3-((1-(2,6-dioxopiperidin-3-yl)-2,5-dioxo-2,5-dihydro-1H-pyrrol-3-yl)amino)phenyl)acetyl)piperidin-4-yl)methyl)piperidin-4-yl)-1H-pyrazol-4-yl)pyrazine-2-carboxylate] | 17.46% | 5.65% | 9.7 nM | 81.44% | 77.67%
3 | COc1ccc(C(=O)N2CCC(C(=O)N3CCC(CCN4CCC(n5cc(-c6cnc(N)c(C(=O)O[C@@H](C(=O)Nc7ccc(F)cc7)c7ccccc7)n6)cn5)CC4)CC3)CC2)cc1N1CCC(=O)NC1=O [TDH-517, (R)-2-((4-fluorophenyl)amino)-2-oxo-1-phenylethyl 3-amino-6-(1-(1-(2-(1-(1-(3-(2,4-dioxotetrahydropyrimidin-1(2H)-yl)-4-methoxybenzoyl)piperidine-4-carbonyl)piperidin-4-yl)ethyl)piperidin-4-yl)-1H-pyrazol-4-yl)pyrazine-2-carboxylate] | 58.11% | 10.78% | 0.62 nM | 93.97% | 86.64%
4 | Nc1ncc(-c2cnn(C3CCN(CCC4CCN(C(=O)Cc5cccc(NC6=CC(=O)N(C7CCC(=O)NC7=O)C6=O)c5)CC4)CC3)c2)nc1C(=O)O[C@@H](C(=O)Nc1ccc(F)cc1)c1ccccc1 (stereo partly drawn) [TDH-518, (R)-2-((4-fluorophenyl)amino)-2-oxo-1-phenylethyl 3-amino-6-(1-(1-(2-(1-(2-(3-((1-(2,6-dioxopiperidin-3-yl)-2,5-dioxo-2,5-dihydro-1H-pyrrol-3-yl)amino)phenyl)acetyl)piperidin-4-yl)ethyl)piperidin-4-yl)-1H-pyrazol-4-yl)pyrazine-2-carboxylate] | 12.44% | −8.57% | 4.3 nM | 89.77% | 88.59%
5 | Nc1ncc(-c2cnn(C3CCN(CC4CCN(c5cc6c(cc5F)C(=O)N(C5CCC(=O)NC5=O)C6=O)CC4)CC3)c2)nc1C(=O)O[C@@H](C(=O)Nc1ccc(F)cc1)c1ccccc1 (stereo partly drawn) [TDH-519, (R)-2-((4-fluorophenyl)amino)-2-oxo-1-phenylethyl 3-amino-6-(1-(1-((1-(2-(2,6-dioxopiperidin-3-yl)-6-fluoro-1,3-dioxoisoindolin-5-yl)piperidin-4-yl)methyl)piperidin-4-yl)-1H-pyrazol-4-yl)pyrazine-2-carboxylate] | 4.80% | 17.07% | 7.1 nM | 89.40% | 86.43%
6 | Nc1ncc(-c2cnn(C3CCN(CCC4CCN(c5cc6c(cc5F)C(=O)N(C5CCC(=O)NC5=O)C6=O)CC4)CC3)c2)nc1C(=O)O[C@@H](C(=O)Nc1ccc(F)cc1)c1ccccc1 (stereo partly drawn) [TDH-520, (R)-2-((4-fluorophenyl)amino)-2-oxo-1-phenylethyl 3-amino-6-(1-(1-(2-(1-(2-(2,6-dioxopiperidin-3-yl)-6-fluoro-1,3-dioxoisoindolin-5-yl)piperidin-4-yl)ethyl)piperidin-4-yl)-1H-pyrazol-4-yl)pyrazine-2-carboxylate] | 63.56% | 36.11% | 19 nM | 92.44% | 94.32%
7 | Nc1ncc(-c2cnn(C3CCN(CC4CCN(C5=CC(=O)N(C6CCC(=O)NC6=O)C5=O)CC4)CC3)c2)nc1C(=O)O[C@@H](C(=O)Nc1ccc(F)cc1)c1ccccc1 (stereo partly drawn) [TDH-521, (R)-2-((4-fluorophenyl)amino)-2-oxo-1-phenylethyl 3-amino-6-(1-(1-((1-(1-(2,6-dioxopiperidin-3-yl)-2,5-dioxo-2,5-dihydro-1H-pyrrol-3-yl)piperidin-4-yl)methyl)piperidin-4-yl)-1H-pyrazol-4-yl)pyrazine-2-carboxylate] | 0.16% | 1.33% | 1.5 nM | 91.54% | 78.62%
8 | Nc1ncc(-c2cnn(C3CCN(CCC4CCN(C5=CC(=O)N(C6CCC(=O)NC6=O)C5=O)CC4)CC3)c2)nc1C(=O)O[C@@H](C(=O)Nc1ccc(F)cc1)c1ccccc1 (stereo partly drawn) [TDH-522, (R)-2-((4-fluorophenyl)amino)-2-oxo-1-phenylethyl 3-amino-6-(1-(1-(2-(1-(1-(2,6-dioxopiperidin-3-yl)-2,5-dioxo-2,5-dihydro-1H-pyrrol-3-yl)piperidin-4-yl)ethyl)piperidin-4-yl)-1H-pyrazol-4-yl)pyrazine-2-carboxylate] | 21.52% | −21.15% | 1.3 nM | 84.27% | 51.16%
9 | Nc1ncc(-c2cnn(C3CCN(CC4CCN(C(=O)C5CCN(C6=CC(=O)N(C7CCC(=O)NC7=O)C6=O)CC5)CC4)CC3)c2)nc1C(=O)O[C@@H](C(=O)Nc1ccc(F)cc1)c1ccccc1 (stereo partly drawn) [TDH-523, (R)-2-((4-fluorophenyl)amino)-2-oxo-1-phenylethyl 3-amino-6-(1-(1-((1-(1-(1-(2,6-dioxopiperidin-3-yl)-2,5-dioxo-2,5-dihydro-1H-pyrrol-3-yl)piperidine-4-carbonyl)piperidin-4-yl)methyl)piperidin-4-yl)-1H-pyrazol-4-yl)pyrazine-2-carboxylate] | 35.34% | 16.27% | 1 nM | 89.24% | 77.14%
10 | Nc1ncc(-c2cnn(C3CCN(CCC4CCN(C(=O)C5CCN(C6=CC(=O)N(C7CCC(=O)NC7=O)C6=O)CC5)CC4)CC3)c2)nc1C(=O)O[C@@H](C(=O)Nc1ccc(F)cc1)c1ccccc1 (stereo partly drawn) [TDH-524, (R)-2-((4-fluorophenyl)amino)-2-oxo-1-phenylethyl 3-amino-6-(1-(1-(2-(1-(1-(1-(2,6-dioxopiperidin-3-yl)-2,5-dioxo-2,5-dihydro-1H-pyrrol-3-yl)piperidine-4-carbonyl)piperidin-4-yl)ethyl)piperidin-4-yl)-1H-pyrazol-4-yl)pyrazine-2-carboxylate] | 48.61% | 15.69% | 0.99 nM | 89.35% | 83.06%
11 | Nc1ncc(-c2cnn(C3CCN(CCCN4CCN(C(=O)C5CCN(C6=CC(=O)N(C7CCC(=O)NC7=O)C6=O)CC5)CC4)CC3)c2)nc1C(=O)O[C@@H](C(=O)Nc1ccc(F)cc1)c1ccccc1 (stereo partly drawn) [TDH-526, (R)-2-((4-fluorophenyl)amino)-2-oxo-1-phenylethyl 3-amino-6-(1-(1-(3-(4-(1-(1-(2,6-dioxopiperidin-3-yl)-2,5-dioxo-2,5-dihydro-1H-pyrrol-3-yl)piperidine-4-carbonyl)piperazin-1-yl)propyl)piperidin-4-yl)-1H-pyrazol-4-yl)pyrazine-2-carboxylate] | 57.37% | 22.77% | 1.2 nM | 67.25% | 81.42%
